Results: patent publication US8084649B2, “Herbicides” (Syngenta Crop Protection, inc., priority 2007, dated 2011)

Tests used:
Assay type in all cases: in vivo
[1] = tested on: Alopecurus myosuroides (ALOMY); assay: Pre-emergence herbicidal activity, glasshouse pot test; conditions: rate 500 g/ha, evaluated after 20 days; for pest or weed control at 500 g/ha: Alopecurus myosuroides, 480 h, read-out: Pre-emergence activity, ALOMY (100=total damage to plant; 0=no damage to plant)
In short: (§1)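 Pots, sterilised standard soil; sown, then sprayed at day 1 pre-emergence. Spray: technical AI in acetone + formulation (10.6% Emulsogen EL, 42.2% NMP, 42.2% DPGME, 0.2% X-77), diluted in water. Greenhouse, optimum conditions; scored at 20 d, 0–100 scale.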

Avena fatua (AVEFA) [2] = assay: as above; conditions: rate 500 g/ha, evaluated after 20 days; for pest or weed control at 500 g/ha: Avena fatua, 480 h, read-out: Pre-emergence activity, AVEFA (100=total damage to plant; 0=no damage to plant)
In short: as §1

[3] = tested on: Digitaria sanguinalis (DIGSA); assay: as above; conditions: rate 500 g/ha, evaluated after 20 days; for pest or weed control at 500 g/ha: Digitaria sanguinalis, 480 h, read-out: Pre-emergence activity, DIGSA (100=total damage to plant; 0=no damage to plant)
In short: as §1

[4] = tested on: Echinochloa crus-galli (ECHCG); assay: as above; conditions: rate 500 g/ha, evaluated after 20 days; for pest or weed control at 500 g/ha: Echinochloa crus-galli, 480 h, read-out: Pre-emergence activity, ECHCG (100=total damage to plant; 0=no damage to plant)
In short: as §1

Lolium perenne (LOLPE) [5] = assay: as above; conditions: rate 500 g/ha, evaluated after 20 days; for pest or weed control at 500 g/ha: Lolium perenne, 480 h, read-out: Pre-emergence activity, LOLPE (100=total damage to plant; 0=no damage to plant)
In short: as §1

Setaria faberi (SETFA) [6] = assay: as above; conditions: rate 500 g/ha, evaluated after 20 days; for pest or weed control at 500 g/ha: Setaria faberi, 480 h, read-out: Pre-emergence activity, SETFA (100=total damage to plant; 0=no damage to plant)
In short: as §1

[7] = tested on: Alopecurus myosuroides (ALOMY); assay: Post-emergence herbicidal activity, glasshouse pot test; conditions: evaluated after 14 or 15 days; for pest or weed control at 500 g/ha / pest or weed control at 125 g/ha: Alopecurus myosuroides, read-out: Post-emergence activity, ALOMY (100=total damage to plant; 0=no damage to plant); for pest or weed control at 125 g/ha: rate 125 g/ha
In short: (§2)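 Plants sown in sterilised standard soil, grown 10 days in glasshouse, then sprayed with aqueous dilution of active ingredient formulated in acetone plus Emulsogen EL/N-methylpyrrolidone/dipropylene glycol monomethyl ether/X-77 solution. Damage scored visually 14 or 15 days after spraying, 0 (none) to 100 (total).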

Avena fatua (AVEFA) [8] = assay: as above; conditions: evaluated after 14 or 15 days; for pest or weed control at 500 g/ha / pest or weed control at 125 g/ha: Avena fatua, read-out: Post-emergence activity, AVEFA (100=total damage to plant; 0=no damage to plant); for pest or weed control at 125 g/ha: rate 125 g/ha
In short: as §2

[9] = tested on: Digitaria sanguinalis (DIGSA); assay: as above; conditions: evaluated after 14 or 15 days; for pest or weed control at 500 g/ha / pest or weed control at 125 g/ha: Digitaria sanguinalis, read-out: Post-emergence activity, DIGSA (100=total damage to plant; 0=no damage to plant); for pest or weed control at 125 g/ha: rate 125 g/ha
In short: as §2

[10] = tested on: Echinochloa crus-galli (ECHCG); assay: as above; conditions: evaluated after 14 or 15 days; for pest or weed control at 500 g/ha / pest or weed control at 125 g/ha: Echinochloa crus-galli, read-out: Post-emergence activity, ECHCG (100=total damage to plant; 0=no damage to plant); for pest or weed control at 125 g/ha: rate 125 g/ha
In short: as §2

Lolium perenne (LOLPE) [11] = assay: as above; conditions: evaluated after 14 or 15 days; for pest or weed control at 500 g/ha / pest or weed control at 125 g/ha: Lolium perenne, read-out: Post-emergence activity, LOLPE (100=total damage to plant; 0=no damage to plant); for pest or weed control at 125 g/ha: rate 125 g/ha
In short: as §2

Setaria faberi (SETFA) [12] = assay: as above; conditions: evaluated after 14 or 15 days; for pest or weed control at 500 g/ha / pest or weed control at 125 g/ha: Setaria faberi, read-out: Post-emergence activity, SETFA (100=total damage to plant; 0=no damage to plant); for pest or weed control at 125 g/ha: rate 125 g/ha
In short: as §2

SMILES	pest or weed control at 500 g/ha [1] [%]	pest or weed control at 500 g/ha (Avena fatua (AVEFA) [2]) [%]	pest or weed control at 500 g/ha [3] [%]	pest or weed control at 500 g/ha [4] [%]	pest or weed control at 500 g/ha (Lolium perenne (LOLPE) [5]) [%]	pest or weed control at 500 g/ha (Setaria faberi (SETFA) [6]) [%]	pest or weed control at 500 g/ha ([7]; rate 500 g/ha) [%]	pest or weed control at 500 g/ha (Avena fatua (AVEFA) [8]; rate 500 g/ha) [%]	pest or weed control at 500 g/ha ([9]; rate 500 g/ha) [%]	pest or weed control at 500 g/ha ([10]; rate 500 g/ha) [%]	pest or weed control at 500 g/ha (Lolium perenne (LOLPE) [11]; rate 500 g/ha) [%]	pest or weed control at 500 g/ha (Setaria faberi (SETFA) [12]; rate 500 g/ha) [%]	pest or weed control at 125 g/ha [7] [%]	pest or weed control at 125 g/ha (Avena fatua (AVEFA) [8]) [%]	pest or weed control at 125 g/ha [9] [%]	pest or weed control at 125 g/ha [10] [%]	pest or weed control at 125 g/ha (Lolium perenne (LOLPE) [11]) [%]	pest or weed control at 125 g/ha (Setaria faberi (SETFA) [12]) [%]	other results
CCc1cc(C)cc(CC)c1C1=C(O)CC(CC(C)S(C)(=O)=O)CC1=O (stereo not drawn) [Compound T30]	80	80	100	100	90	100	70	90	100	100	80	100	–	–	–	–	–	–	–
CCc1cc(C)cc(CC)c1C1=C(O)CC(CCS(C)(=O)=O)CC1=O (stereo not drawn) [Compound T31]	–	–	–	–	–	–	–	–	–	–	–	–	–	–	–	–	–	–	Pre-emergence activity, ALOMY (100=total damage to plant; 0=no damage to plant) [1]: 80; Pre-emergence activity, AVEFA (100=total damage to plant; 0=no damage to plant) (Avena fatua (AVEFA) [2]): 80; Pre-emergence activity, DIGSA (100=total damage to plant; 0=no damage to plant) [3]: 100; Pre-emergence activity, ECHCG (100=total damage to plant; 0=no damage to plant) [4]: 100; Pre-emergence activity, LOLPE (100=total damage to plant; 0=no damage to plant) (Lolium perenne (LOLPE) [5]): 100; Pre-emergence activity, SETFA (100=total damage to plant; 0=no damage to plant) (Setaria faberi (SETFA) [6]): 100; Post-emergence activity, ALOMY (100=total damage to plant; 0=no damage to plant) ([7]; rate 500 g/ha): 80; Post-emergence activity, AVEFA (100=total damage to plant; 0=no damage to plant) (Avena fatua (AVEFA) [8]; rate 500 g/ha): 60; Post-emergence activity, DIGSA (100=total damage to plant; 0=no damage to plant) ([9]; rate 500 g/ha): 100; Post-emergence activity, ECHCG (100=total damage to plant; 0=no damage to plant) ([10]; rate 500 g/ha): 100; Post-emergence activity, LOLPE (100=total damage to plant; 0=no damage to plant) (Lolium perenne (LOLPE) [11]; rate 500 g/ha): 90; Post-emergence activity, SETFA (100=total damage to plant; 0=no damage to plant) (Setaria faberi (SETFA) [12]; rate 500 g/ha): 100
CCCSC(C)CC1CC(=O)C(c2c(CC)cc(C)cc2CC)=C(O)C1 (stereo not drawn) [Compound T32]	90	80	100	100	100	100	80	80	100	100	90	100	–	–	–	–	–	–	–
CCCSC(C)CC1CC(=O)C(c2c(C)cc(C)cc2C)=C(O)C1 (stereo not drawn) [Compound T35]	90	80	90	70	80	80	90	70	70	70	80	50	–	–	–	–	–	–	–
CCC[S+]([O-])C(C)CC1CC(=O)C(c2c(CC)cc(C)cc2CC)=C(O)C1 (stereo not drawn) [Compound T37]	100	90	100	100	100	100	90	90	80	100	90	50	–	–	–	–	–	–	–
CCc1cc(C)cc(CC)c1C1=C(O)CC(CC(C)SC(C)C)CC1=O (stereo not drawn) [Compound T38]	90	70	70	70	100	60	90	100	70	70	90	80	–	–	–	–	–	–	–
Cc1cc(C)c(C2=C(O)CC(CC(C)SC(C)C)CC2=O)c(C)c1 (stereo not drawn) [Compound T39]	70	70	90	60	80	70	–	–	–	–	–	–	10	0	30	20	0	10	–
CCCS(=O)(=O)C(C)CC1CC(=O)C(c2c(C)cc(C)cc2C)=C(O)C1 (stereo not drawn) [Compound T40]	80	50	50	70	90	60	–	–	–	–	–	–	80	30	50	60	80	50	–
CCC[S+]([O-])C(C)CC1CC(=O)C(c2c(C)cc(C)cc2C)=C(O)C1 (stereo not drawn) [Compound T41]	90	60	100	80	100	80	–	–	–	–	–	–	90	70	80	70	80	50	–
CCc1cc(C)cc(CC)c1C1=C(O)CC2(CC[S+]([O-])CC2)CC1=O (stereo not drawn) [Compound T52]	90	100	70	10	100	70	–	–	–	–	–	–	60	60	60	30	40	20	–
CCc1cc(C)cc(CC)c1C1=C(O)CC2(CCS(=O)(=O)CC2)CC1=O [Compound T53]	60	80	100	100	90	30	–	–	–	–	–	–	80	80	90	100	70	60	–
CCc1cc(C)cc(CC)c1C1=C(O)CC(CC(C)S(=O)(=O)C(C)C)CC1=O (stereo not drawn) [Compound T54]	100	80	100	100	100	80	–	–	–	–	–	–	80	60	70	80	80	50	–
